Measured values from ChEMBL document CHEMBL1123649, “Congener derivatives and conjugates of histamine: synthesis and tissue and receptor selectivity of the derivatives” (J Med Chem, 1987).

How the values were obtained:
[1] = target: Histamine H1 receptor (Homo sapiens) (UniProt P35367); assay: Effect on peripheral vasculature of the rabbit as percentage change in contractility.; format: functional, tissue-based; settings: Oryctolagus cuniculus, target entry is the homologue from another species
Sequence of Histamine H1 receptor (Homo sapiens) (P35367 whole entry): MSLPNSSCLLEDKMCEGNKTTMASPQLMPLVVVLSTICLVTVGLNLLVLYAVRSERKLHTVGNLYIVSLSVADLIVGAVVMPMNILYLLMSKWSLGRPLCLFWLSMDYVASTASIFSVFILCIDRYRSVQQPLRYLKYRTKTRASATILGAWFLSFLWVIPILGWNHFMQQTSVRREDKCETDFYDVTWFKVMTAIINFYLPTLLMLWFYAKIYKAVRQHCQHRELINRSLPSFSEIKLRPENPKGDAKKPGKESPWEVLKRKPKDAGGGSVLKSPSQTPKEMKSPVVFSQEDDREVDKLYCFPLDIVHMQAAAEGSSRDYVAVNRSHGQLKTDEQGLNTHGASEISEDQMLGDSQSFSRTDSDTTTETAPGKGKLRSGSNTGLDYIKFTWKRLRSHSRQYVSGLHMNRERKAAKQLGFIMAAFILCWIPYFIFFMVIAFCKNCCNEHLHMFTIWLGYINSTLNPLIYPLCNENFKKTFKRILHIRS

[2] = target: Histamine H2 receptor (Cavia porcellus) (UniProt P47747); assay: Relative potency in guinea pig myocardium (GPM) by adenylate cyclase stimulation assay, H2 receptor response; format: functional, tissue-based
Sequence of Histamine H2 receptor (Cavia porcellus) (P47747 whole entry): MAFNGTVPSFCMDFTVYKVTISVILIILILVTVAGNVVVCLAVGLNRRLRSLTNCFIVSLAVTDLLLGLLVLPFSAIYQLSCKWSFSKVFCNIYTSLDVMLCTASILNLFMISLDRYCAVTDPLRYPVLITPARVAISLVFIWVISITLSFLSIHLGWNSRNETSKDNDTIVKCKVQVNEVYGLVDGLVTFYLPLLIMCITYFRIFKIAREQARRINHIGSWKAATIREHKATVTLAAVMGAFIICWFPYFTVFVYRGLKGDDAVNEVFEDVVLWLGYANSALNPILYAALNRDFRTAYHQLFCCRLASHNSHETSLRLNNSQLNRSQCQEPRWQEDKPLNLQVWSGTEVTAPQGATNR

[3] = target: Histamine H2 receptor (Mus musculus) (UniProt P97292); assay: Relative potency by cAMP assay in natural suppressor cells.; format: functional, cell-based
Sequence of Histamine H2 receptor (Mus musculus) (P97292 whole entry): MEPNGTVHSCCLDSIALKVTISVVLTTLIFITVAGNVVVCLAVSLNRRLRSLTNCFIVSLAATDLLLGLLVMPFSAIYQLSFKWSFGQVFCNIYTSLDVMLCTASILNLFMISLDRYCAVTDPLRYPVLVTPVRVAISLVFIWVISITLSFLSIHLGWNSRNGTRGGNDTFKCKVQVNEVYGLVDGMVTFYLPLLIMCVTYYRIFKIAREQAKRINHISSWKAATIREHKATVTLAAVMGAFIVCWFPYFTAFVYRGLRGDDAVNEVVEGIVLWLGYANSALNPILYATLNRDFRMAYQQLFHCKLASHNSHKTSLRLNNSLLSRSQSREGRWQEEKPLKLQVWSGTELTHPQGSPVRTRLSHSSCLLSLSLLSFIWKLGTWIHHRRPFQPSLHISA

| Structure (SMILES) | Change [1] [%] | Relative potency [2] | Relative potency [3] |
| --- | --- | --- | --- |
| CC(CCCC(=O)Nc1ccc(C(F)(F)F)cc1)NCCc1c[nH]cn1 (stereo not given) | 0 | 0 | 0 |
| Cc1ccc(NC(=O)CCCCC(C)NCCc2c[nH]cn2)cc1 (stereo not given) | 0 | 0.07 | 3 |
| CC(CCCCC(=O)Nc1ccc(C(F)(F)F)cc1)NCCc1c[nH]cn1 (stereo not given) |  | 0 | 40000 |
| CNC(=O)CNC(=O)C(Cc1ccccc1)N(NC(=O)CCC(C)NCCc1c[nH]cn1)C(=O)OC(C)(C)C (stereo not given) | 0 | 0 | 0 |
| Cc1ccc(NC(=O)CC(C)NCCc2c[nH]cn2)cc1 (stereo not given) | 0 |  | 0 |
| CC(CCC(=O)Nc1ccc(C(F)(F)F)cc1)NCCc1c[nH]cn1 (stereo not given) | 0 |  | 0 |
| CCCCNC(=O)CCCCC(C)NCCc1c[nH]cn1 (stereo not given) | 0 | 0.01 | 0 |
| Cc1ccc(NC(=O)CCC(C)NCCc2c[nH]cn2)cc1 (stereo not given) | 0 |  | 0 |
| CCCCCCNCCc1c[nH]cn1 | 93 | 0 | 5 |
| NCCc1c[nH]cn1 | 284 | 1 | 1 |
| Cc1ccc(NC(=O)CCCC(C)NCCc2c[nH]cn2)cc1 (stereo not given) | 90 | 0.01 | 4000 |
| CCCCCC(C)NCCc1c[nH]cn1 (stereo not given) | 0 | 0 | 0 |
| CNC(=O)CNC(=O)C(Cc1ccccc1)N(NC(=O)CCCC(C)NCCc1c[nH]cn1)C(=O)OC(C)(C)C (stereo not given) | 0 | 0 | 0 |
| CNC(=O)CNC(=O)C(Cc1ccccc1)N(NC(=O)CCCCC(C)NCCc1c[nH]cn1)C(=O)OC(C)(C)C (stereo not given) | 0 | 0.0007 | 0 |
| Cc1ccc(NC(=O)CCCCCC(C)NCCc2c[nH]cn2)cc1 (stereo not given) | 0 | 0.02 | 2 |
| Cc1ccc(NC(=O)CCCCNCCc2c[nH]cn2)cc1 | 0 | 0.09 | 2 |
| Cc1ccc(NC(=O)CCCC(=O)NCCc2c[nH]cn2)cc1 | 0 | 0 | 4.4 |
| CC(CC(=O)Nc1ccc(C(F)(F)F)cc1)NCCc1c[nH]cn1 (stereo not given) | 0 |  | 0 |
| CCCCCC(=O)NCCc1c[nH]cn1 | 0 | 0 | 0 |
| CC(CCCCC(=O)Nc1ccccc1C(F)(F)F)NCCc1c[nH]cn1 (stereo not given) | 0 | 0 | 0 |
